According to patent US20040219214A1, “Tissue reactive compounds and compositions and uses thereof” (Angiotech International AG, priority 2002, published 2004):

Experiments:
[1] = test system: TNFα production by THP-1 cells; test: TNF-alpha production by macrophages (ELISA); format: cell-based, human; conditions: opsonized zymosan stimulation, 24 hours; average of n=4 experiments
Procedure: The human macrophage cell line, THP-1 is plated in a 12 well plate such that each well contains 1×10^6 cells in 2 mL of media containing 10% FCS. Opsonized zymosan is prepared by resuspending 20 mg of zymosan A in 2 mL of ddH2O and homogenizing until a uniform suspension is obtained. Homogenized zymosan is pelleted at 250 g and resuspended in 4 mL of human serum for a final concentration of 5 mg/mL. and incubated in a 37° C. water bath for 20 minutes to enable opsonization. Bay 11-7082 is prepared in DMSO at a concentration of 10^−2 M and serially diluted 10-fold to give a range of stock concentrations (10^−8 M to 10^−2 M) (J. Immunol. (2000) 165: 411-418; J. Immunol. (2000) 164: 4804-4811; J. Immunol Meth. (2000) 235 (1-2): 33-40).
THP-1 cells are stimulated to produce TNFα by the addition of 1 mg/mL opsonized zymosan. […]
After a 24 hour stimulation, supernatants are collected to quantify TNFα production. TNFα concentrations in the supernatants are determined by ELISA using recombinant human TNFα to obtain a standard curve. […] The dilution of Capture Antibody used is lot-specific and is determined empirically. […] Stop Solution (2 N H2SO4) is then added to the wells and a yellow colour reaction is read at 450 nm with A correction at 570 nm. Mean absorbance is determined from triplicate data readings and the mean background is subtracted. […]

[2] = test system: nitric oxide production in RAW 264.7 cells; test: Nitric oxide production by macrophages (Greiss assay); format: cell-based, murine; conditions: Mus musculus, RAW264.7; IFNγ and LPS stimulation, 24 hours; average of n=4 experiments
Procedure: The murine macrophage cell line RAW 264.7 is trypsinized to remove cells from flasks and plated in individual wells of a 6-well plate. Approximately 2×10^6 cells are plated in 2 mL of media containing 5% heat-inactivated fetal bovine serum (FBS). RAW 264.7 cells are incubated at 37° C. for 1.5 hours to allow adherence to plastic. Mitoxantrone is prepared in DMSO at a concentration of 10^−2 M and serially diluted 10-fold to give a range of stock concentrations (10^−8 M to 10^−2 M). Media is then removed and cells are incubated in 1 ng/mL of recombinant murine IFNγ and 5 ng/mL of LPS with or without mitoxantrone in fresh media containing 5% FBS. Mitoxantrone is added to cells by directly adding mitoxantrone DMSO stock solutions, prepared earlier, at a 1/1000 dilution, to each well. Plates containing IFNγ, LPS plus or minus mitoxantrone are incubated at 37° C. for 24 hours (Chem. Ber. (1879) 12: 426; J. AOAC (1977) 60-594; Ann. Rev. Biochem. (1994) 63: 175).
At the end of the 24 hour period, supernatants are collected from the cells and assayed for the production of nitrites. […] Optical density is read immediately on microplate spectrophotometer at 562 nm absorbance. Absorbance over triplicate wells is averaged after subtracting background and concentration values are obtained from the nitrite standard curve (1 μM to 2 mM). […]

human fibroblasts = test: Screening assay for effect on cell proliferation (CYQUANT); format: cell-based; conditions: Fibroblast, 72 hours incubation, average of n=4 experiments
Procedure: Fibroblasts at 70-90% confluency are trypsinized, replated at 600 cells/well in media in 96-well plates and allowed to attachment overnight. Mitoxantrone is prepared in DMSO at a concentration of […] and diluted 10-fold to give a range of stock concentrations (10^−8 M to 10^−2 M). Drug dilutions are diluted 1/1000 in media and added to cells to give a total volume of 200 μL/well. Each drug concentration is tested in triplicate wells. Plates containing fibroblasts and mitoxantrone are incubated at 37° C. for 72 hours (In vitro toxicol. (1990) 3: 219; Biotech. Histochem. (1993) 68: 29; Anal. Biochem. (1993)213: 426).
To terminate the assay, the media is removed by gentle aspiration. A 1/400 dilution of CYQUANT 400× GR dye indicator (Molecular Probes; Eugene, Oreg.) is added to 1× Cell Lysis buffer, and 200 μL of the mixture is added to the wells of the plate. Plates are incubated at room temperature, protected from light for 3-5 minutes. Fluorescence is read in a fluorescence microplate reader at ˜480 nm excitation wavelength and ˜520 nm emission maxima. Inhibitory concentration of 50% (IC50) is determined by taking the average of triplicate wells and comparing average relative fluorescence units to the DMSO control. An average of n=4 replicate experiments is used to determine IC50 values. (IC50=20 nM for proliferation of human fibroblasts).

IC50 [1] [nM]	SMILES	IC50 [2] [nM]	IC50 (human fibroblasts) [nM]
810	Cc1ccc(S(=O)(=O)/C=C/C#N)cc1 [Bay 11-7082]		
	O=C1c2c(O)ccc(O)c2C(=O)c2c(NCCNCCO)ccc(NCCNCCO)c21 [Mitoxantrone, 9,10-Anthracenedione, 1,4-dihydroxy-5,8-bis((2-((2-hydroxyethyl)amino]ethyl]amino]-]	927	20
